In patent US8710070B2, “Opioid-ketamine and norketamine codrug combinations for pain management” (University of Kentucky Research Foundation, priority 2008, dated 2014):
“And” between values parts separate entries of the source, which are not always exact repeats. Identical values can stand only once. Like-named read-outs stand apart in the source and are kept apart here.

Key:
Male Rats = conditions: individual rats
Description: • 1) Solution MOR 3 mg/ul (the same Mor. […] 1) • 2) (+) Norketamine 3 mg/ml dose 3 mg/kg inj.
• TFL—intensity 40%, idle activity 5%, cut-off 10 sec.
• TFL—Intensity 40%, idle activity 5%, cut-off 10 sec.
• TFL—Intensity 40%, idle activity 5%, cut-off 10 seconds Solutions:

[1] = C. S. T. Aun, 1999, cited from earlier work
NMDA receptor = conditions: Ebert et al., 1997; cited from earlier work

CN1CC[C@]23c4c5ccc(O)c4O[C@H]2[C@@H](O)C=C[C@H]3[C@H]1C5 [Morphine, morphine]
TFL 15 min. (Male Rats; Day 1, male rats 5-8, MOR 3 mg/kg + SAL or (+) Norket 3 mg/kg, 15 min after injection, listed as MOR): 3.24 s and 3.55 s
TFL 30 min. (Male Rats; Day 1, male rats 5-8, MOR 3 mg/kg + SAL or (+) Norket 3 mg/kg, 30 min after injection, listed as MOR): 5.72 s and 6.2 s
TFL 60 min. (Male Rats; Day 1, male rats 5-8, MOR 3 mg/kg + SAL or (+) Norket 3 mg/kg, 60 min after injection, listed as MOR): 1.93 s and 4.50 s
TFL 120 min. (Male Rats; Day 1, male rats 5-8, MOR 3 mg/kg + SAL or (+) Norket 3 mg/kg, 120 min after injection, listed as MOR): 1.61 s and 5.44 s
TFL 15 min. (Male Rats; Day 2, male rats 1-4, Mor 3 mg/kg & (−) Norketamine 3 mg/kg or saline, 15 min, cut-off 10 sec, listed as Mor): 2.03 s and 4.89 s
TFL 30 min. (Male Rats; Day 2, male rats 1-4, Mor 3 mg/kg & (−) Norketamine 3 mg/kg or saline, 30 min, cut-off 10 sec, listed as Mor): 2.74 s and 7.26 s
TFL 60 min. (Male Rats; Day 2, male rats 1-4, Mor 3 mg/kg & (−) Norketamine 3 mg/kg or saline, 60 min, cut-off 10 sec, listed as Mor): 1.94 s and 6.84 s
TFL 120 min. (Male Rats; Day 2, male rats 1-4, Mor 3 mg/kg & (−) Norketamine 3 mg/kg or saline, 120 min, cut-off 10 sec, listed as Mor): 1.48 s and 5.37 s
TFL 15 min. (Male Rats; Day 2, male rats 5-8, 3 mg/kg Mor & 3 mg/kg (+) Norketamine or saline, 15 min, cut-off 10 sec, listed as Mor): 3.41 s and 3.48 s
TFL 30 min. (Male Rats; Day 2, male rats 5-8, 3 mg/kg Mor & 3 mg/kg (+) Norketamine or saline, 30 min, cut-off 10 sec, listed as Mor): 4.09 s and 3.22 s
TFL 60 min. (Male Rats; Day 2, male rats 5-8, 3 mg/kg Mor & 3 mg/kg (+) Norketamine or saline, 60 min, cut-off 10 sec, listed as Mor): 4.03 s and 3.01 s
TFL 120 min. (Male Rats; Day 2, male rats 5-8, 3 mg/kg Mor & 3 mg/kg (+) Norketamine or saline, 120 min, cut-off 10 sec, listed as Mor): 2.94 s and 2.12 s
TFL 15 min. (Male Rats; second series, Day 1, male rats 1-4, 3 mg/kg Morphine & saline or 3 mg/kg (−) Norketamine, 15 min, cut-off 10 sec): 2.92 s and 1.82 s
TFL 30 min. (Male Rats; second series, Day 1, male rats 1-4, 3 mg/kg Morphine & saline or 3 mg/kg (−) Norketamine, 30 min, cut-off 10 sec): 3.64 s and 2.36 s
TFL 60 min. (Male Rats; second series, Day 1, male rats 1-4, 3 mg/kg Morphine & saline or 3 mg/kg (−) Norketamine, 60 min, cut-off 10 sec): 3.28 s and 3.30 s
TFL 120 min. (Male Rats; second series, Day 1, male rats 1-4, 3 mg/kg Morphine & saline or 3 mg/kg (−) Norketamine, 120 min, cut-off 10 sec): 2.74 s and 1.92 s
TFL 15 min. (Male Rats; second series, Day 1, male rats 5-8, 3 mg/kg Morphine & saline or 3 mg/kg (+) Norketamine, 15 min, cut-off 10 sec): 2.97 s and 2.88 s
TFL 30 min. (Male Rats; second series, Day 1, male rats 5-8, 3 mg/kg Morphine & saline or 3 mg/kg (+) Norketamine, 30 min, cut-off 10 sec): 2.75 s and 3.86 s
TFL 60 min. (Male Rats; second series, Day 1, male rats 5-8, 3 mg/kg Morphine & saline or 3 mg/kg (+) Norketamine, 60 min, cut-off 10 sec): 3.51 s and 3.69 s
TFL 120 min. (Male Rats; second series, Day 1, male rats 5-8, 3 mg/kg Morphine & saline or 3 mg/kg (+) Norketamine, 120 min, cut-off 10 sec): 2.70 s and 2.17 s
TFL 15 min. (Male Rats; second series, Day 2, male rats 5-8, 3 mg/kg Morphine & 3 mg/kg (+) Norketamine or saline, 15 min, cut-off 10 seconds): 2.25 s and 1.56 s
TFL 30 min. (Male Rats; second series, Day 2, male rats 5-8, 3 mg/kg Morphine & 3 mg/kg (+) Norketamine or saline, 30 min, cut-off 10 seconds): 2.46 s and 1.97 s
TFL 60 min. (Male Rats; second series, Day 2, male rats 5-8, 3 mg/kg Morphine & 3 mg/kg (+) Norketamine or saline, 60 min, cut-off 10 seconds): 3.83 s and 2.08 s
TFL 120 min. (Male Rats; second series, Day 2, male rats 5-8, 3 mg/kg Morphine & 3 mg/kg (+) Norketamine or saline, 120 min, cut-off 10 seconds): 2.60 s and 2.24 s

NC1(c2ccccc2Cl)CCCCC1=O (stereo not drawn) [Norketamine, 2-(2-chlorophenyl)-2-amino-cyclohexanone]
anesthetic and analgesic potency relative to ketamine ([1]; speculated): one third that of ketamine
binding to the NMDA receptor relative to S- and R-ketamine (NMDA receptor): less tightly than either S- or R-ketamine

CN[C@]1(c2ccccc2Cl)CCCCC1=O [S-ketamine]
potency relative to R-ketamine [1]: twice as potent as R-ketamine
